Where two headings read alike, the source gives them in different places.
Legend:
[1] = Water solubility test (Japanese Pharmacopoeia solubility test method); assay type: physicochemical; settings: 20±5° C., dissolution in 30 min; for evaluation (water solubility): criteria of Table 9
Protocol: According to the Japanese Pharmacopoeia solubility test method, the compounds of Examples 1 and 7 of the present invention and the corresponding N-methyl unsubstituted compounds were examined for water solubility. To be specific, a test substance was powderized, placed in water and the mixture was vigorously shaken for 30 sec every 5 min at 20±5° C. The solubility was evaluated based on the degree of dissolution in 30 min by reference to the following Table 9.

[2] = system: S. aureus ATCC 6538; assay: Bactericidal activity test (MBC measurement); assay type: cell-based, Staphylococcus aureus
Protocol: (§1) Each strain was cultured in Trypticase Soy agar medium for 18 to 20 hr, suspended in 0.1% peptone saline, and prepared to OD 600 nm, 1.0 McFarland. The suspension was further diluted with 0.1% peptone saline to give a test bacteria solution (targeted value; 2×10^7 CFU/mL).
(§2) At 0.5, 1 and 3 min from the start of the reaction, a part of the reaction mixture was sampled and mixed with an equal amount of a neutralizing agent (10% Tween 80, 3% lecithin/aqueous solution) to terminate the bactericidal reaction. The reaction mixture was inoculated to a 96 well microplate dispensed with 180 μL of Tripticase Soy liquid medium in advance, and statically cultured at 37° C. for 20 to 24 hr. Thereafter, the presence or absence of growth was visually evaluated, and the minimum concentration at which growth was not observed was taken as the minimal bactericidal concentration (MBC value) of each action time. The numerical values in the Tables show MBC, the unit is μg/mL, S. aureus means Staphylococcus aureus, MRSA means methicillin-resistant Staphylococcus aureus, E. coli means Escherichia coli, and P. aeruginosa means Pseudomonas aeruginosa.

[3] = system: MRSA ATCC 33591; assay: Bactericidal activity test (MBC measurement); assay type: cell-based, methicillin-resistant Staphylococcus aureus
Protocol: as §1, §2

[4] = system: E. coli ATCC 25922; assay: Bactericidal activity test (MBC measurement); assay type: cell-based, Escherichia coli
Protocol: as §1, §2

[5] = system: P. aeruginosa ATCC 27853; assay: Bactericidal activity test (MBC measurement); assay type: cell-based, Pseudomonas aeruginosa
Protocol: as §1, §2

[6] = system: P. aeruginosa PAO-1; assay: Bactericidal activity test (MBC measurement); assay type: cell-based, Pseudomonas aeruginosa
Protocol: as §1, §2

[7] = Skin sensitivity test, LLNA-BrdU method (lymph node weight); assay type: in vivo; settings: 5 w/v % in acetone/olive oil 4:1, transdermal to auricle once a day for 3 days, mice
Protocol: For application of an external bactericidal/disinfectant agent to the skin, the sensitivity (allergenicity) is desirably as small as possible. […] The sensitivity was evaluated by a Local lymph node assay (LLNA) method using Bromodeoxyuridine (BrdU). In this test, measurement of the amount of BrdU uptaken by the lymph node using an ELISA kit was not performed, and the evaluation was based solely on the weight increase of the lymph node.
8-Week-old female CBA/JN Crlj mice were grouped (3 per group) according to the adequate strafication method based on the body weight (about 20 g) on the first day of administration. A test substance was prepared to 5 w/v % for each test substance by using a mixed solution of acetone and olive oil (v/v=4:1, A00). This was repeatedly administered transdermally to the auricle of the mice at 25 μL/auricle (50 for both auricles) once a day for 3 days. Two days after the final administration, BrdU 10 mg/mL (0.5 mL/mouse) was intraperitoneally administered. Three days after the final transdermal administration (next day of BrdU administration), carbon dioxide was given by inhalation to a comfortable death, and the auricle lymph node was isolated and the weight thereof was measured.

[8] = Staphylococcus aureus, ATCC6538, 0.5 min, S. aureus ATCC 6538, action time 0.5 min, read-out: MBC
[9] = Staphylococcus aureus, ATCC6538, 1 min, S. aureus ATCC 6538, action time 1 min, read-out: MBC
[10] = Staphylococcus aureus, ATCC6538, 0.05 h, S. aureus ATCC 6538, action time 3 min, read-out: MBC
[11] = Staphylococcus aureus, 0.5 min, MRSA ATCC 33591, action time 0.5 min, read-out: MBC
[12] = Staphylococcus aureus, 1 min, MRSA ATCC 33591, action time 1 min, read-out: MBC
[13] = Staphylococcus aureus, 0.05 h, MRSA ATCC 33591, action time 3 min, read-out: MBC
[14] = Escherichia coli, ATCC25922, 0.5 min, E. coli ATCC 25922, action time 0.5 min, read-out: MBC
[15] = Escherichia coli, ATCC25922, 1 min, E. coli ATCC 25922, action time 1 min, read-out: MBC
[16] = Escherichia coli, ATCC25922, 0.05 h, E. coli ATCC 25922, action time 3 min, read-out: MBC
[17] = Pseudomonas aeruginosa, ATCC27853, 0.5 min, P. aeruginosa ATCC 27853, action time 0.5 min, read-out: MBC
[18] = Pseudomonas aeruginosa, ATCC27853, 1 min, P. aeruginosa ATCC 27853, action time 1 min, read-out: MBC
[19] = Pseudomonas aeruginosa, ATCC27853, 0.05 h, P. aeruginosa ATCC 27853, action time 3 min, read-out: MBC
[20] = Pseudomonas aeruginosa, PAO1, 0.5 min, P. aeruginosa PAO-1, action time 0.5 min, read-out: MBC
[21] = Pseudomonas aeruginosa, PAO1, 1 min, P. aeruginosa PAO-1, action time 1 min, read-out: MBC
[22] = Pseudomonas aeruginosa, PAO1, 0.05 h, P. aeruginosa PAO-1, action time 3 min, read-out: MBC

With `CCCCCCCCNC1=NC(C)(C)NC(NCc2ccc(Cl)cc2)=N1` [Comp. Ex. 1, reference compound] the “water (mL) to dissolve 1 g” value [1] was 110 mL and the “evaluation (water solubility)” value [1] was “slightly soluble (not less than 100 mL less than 1,000 mL)”.
In the case of `CCCCCCCCNC1=NC(C)(C)NC(NCc2ccc(C)cc2)=N1` [Comp. Ex. 2, reference compound], the “water (mL) to dissolve 1 g” value [1] was 50 mL and the “evaluation (water solubility)” value [1] was “sparingly soluble (not less than 30 mL less than 100 mL)”.
`CCCCCCCCN(C)C1=NC(C)(C)NC(NCc2ccc(Cl)cc2)=N1` [Example 1, N^4-octyl-N^4-methyl-1,6-dihydro-6,6-dimethyl-N^2— (4-chlorobenzyl)-1,3,5-triazine-2,4-diamine acetate] gave an MBC [2, 8] of 50 µg/mL, an MBC [2, 9] of 12 µg/mL and an MBC [2, 10] of 6.25 µg/mL. The MBC [3, 11] was 50 µg/mL, the MBC [3, 12] was 25 µg/mL and the MBC [3, 13] was 12.5 µg/mL. The MBC [4, 14] was 12.5 µg/mL, the MBC [4, 15] was 12.5 µg/mL and the MBC [4, 16] was 12.5 µg/mL. It also gave an MBC [5, 17] of 12.5 µg/mL, an MBC [5, 18] of 12.5 µg/mL and an MBC [5, 19] of 12.5 µg/mL. It also gave an MBC [6, 20] of 12.5 µg/mL, an MBC [6, 21] of 12.5 µg/mL and an MBC [6, 22] of 12.5 µg/mL. For the same compound, the “water (mL) to dissolve 1 g” value [1] was under 0.5 mL and the “evaluation (water solubility)” value [1] was “very soluble (less than 1 mL)”.
`CCCCCCCCNC1=NC(C)(C)NC(N(C)Cc2ccccc2)=N1` [Example 5, N^4-octyl-1,6-dihydro-6,6-dimethyl-N^2-benzyl-N^2-methyl-1,3,5-triazine-2,4-diamine acetate] showed an MBC [2, 8] of 200 µg/mL, an MBC [3, 11] of 50 µg/mL and an MBC [4, 14] of 25 µg/mL. For the same compound, the MBC [5, 17] was 12.5 µg/mL, the MBC [6, 20] was 25 µg/mL and the “SI value (Stimulation index, lymph node weight ratio to solvent group)” value [7] was 0.9.
With `CCCCCCCCN(C)C1=NC(C)(C)NC(NCc2ccc(C)cc2)=N1` [Example 7, N^4-octyl-N^4-methyl-1,6-dihydro-6,6-dimethyl-N^2-(4-methylbenzyl)-1,3,5-triazine-2,4-diamine acetate] the “water (mL) to dissolve 1 g” value [1] was 0.9 mL, the “evaluation (water solubility)” value [1] was “very soluble (less than 1 mL)” and the “SI value (Stimulation index, lymph node weight ratio to solvent group)” value [7] was 2.6.
Compound `CCCCCCCCN(C)C(=N)/N=C(\N)NCc1ccc(Cl)cc1.Cl` [Example 27, N^5-octyl-N^5-methyl-N^1-(4-chlorobenzyl)biguanide hydrochloride] has an MBC [2, 8] of 50 µg/mL, an MBC [2, 9] of 25 µg/mL and an MBC [2, 10] of 25 µg/mL. It also gave an MBC [3, 11] of 50 µg/mL, an MBC [3, 12] of 25 µg/mL and an MBC [3, 13] of 25 µg/mL. It also gave an MBC [4, 14] of 25 µg/mL, an MBC [4, 15] of 6.25 µg/mL and an MBC [4, 16] of 6.25 µg/mL. It also gave an MBC [5, 17] of 12.5 µg/mL, an MBC [5, 18] of 12.5 µg/mL and an MBC [5, 19] of 6.25 µg/mL. For the same compound, the MBC [6, 20] was 12.5 µg/mL, the MBC [6, 21] was 12.5 µg/mL and the MBC [6, 22] was 12.5 µg/mL. The “SI value (Stimulation index, lymph node weight ratio to solvent group)” value [7] was 2.4.
`CCCCCCCCCCNC(=N)NC(=N)N(C)Cc1ccccc1.Cl.Cl` [Example 29, N^5-decyl-N′-methyl-N′-benzyl-biguanide dihydrochloride] gave an MBC ([2]; S. aureus ATCC 6538, action time 0.5 min) of 200 µg/mL, an MBC ([2]; S. aureus ATCC 6538, action time 1 min) of 100 µg/mL and an MBC ([2]; S. aureus ATCC 6538, action time 3 min) of 12.5 µg/mL. It also gave an MBC ([3]; MRSA ATCC 33591, action time 0.5 min) of 200 µg/mL, an MBC ([3]; MRSA ATCC 33591, action time 1 min) of 200 µg/mL and an MBC ([3]; MRSA ATCC 33591, action time 3 min) of 50 µg/mL. For the same compound, the MBC ([4]; E. coli ATCC 25922, action time 0.5 min) was 6.25 µg/mL, the MBC ([4]; E. coli ATCC 25922, action time 1 min) was 6.25 µg/mL and the MBC ([4]; E. coli ATCC 25922, action time 3 min) was 6.25 µg/mL. The MBC ([5]; P. aeruginosa ATCC 27853, action time 0.5 min) was 12.5 µg/mL, the MBC ([5]; P. aeruginosa ATCC 27853, action time 1 min) was 12.5 µg/mL and the MBC ([5]; P. aeruginosa ATCC 27853, action time 3 min) was 6.25 µg/mL. For the same compound, the MBC ([6]; P. aeruginosa PAO-1, action time 0.5 min) was 12.5 µg/mL, the MBC ([6]; P. aeruginosa PAO-1, action time 1 min) was 12.5 µg/mL and the MBC ([6]; P. aeruginosa PAO-1, action time 3 min) was 6.25 µg/mL.
`CCCCCCCCCNC(=N)NC(=N)N(C)Cc1ccccc1.Cl.Cl` [Example 30, N^5-nonyl-N^1-methyl-N^1-benzyl-biguanide dihydrochloride] gave an MBC [2, 8] of 200 µg/mL, an MBC [2, 9] of 100 µg/mL and an MBC [2, 10] of 25 µg/mL. For the same compound, the MBC [3, 11] was over 200 µg/mL, the MBC [3, 12] was over 100 µg/mL and the MBC [3, 13] was 25 µg/mL. It also gave an MBC [4, 14] of 12.5 µg/mL, an MBC [4, 15] of 12.5 µg/mL and an MBC [4, 16] of 12.5 µg/mL. The MBC [5, 17] was 6.25 µg/mL, the MBC [5, 18] was 6.25 µg/mL and the MBC [5, 19] was 6.25 µg/mL. For the same compound, the MBC [6, 20] was 12.5 µg/mL, the MBC [6, 21] was 6.25 µg/mL and the MBC [6, 22] was 6.25 µg/mL.
For `CCCCCCCCNC1=NC(C)(C)N=C(NCC2CCCCC2)N1` [Ref. Ex. 3, 4-octylamino-2-cyclohexylmethylamino-1,6-dihydro-6,6-dimethyl-1,3,5-triazine acetate, reference compound], the “SI value (Stimulation index, lymph node weight ratio to solvent group)” value [7] was 4.6.
With `CCCCCCCCNC1=NC(C)(C)NC(Nc2ccccc2)=N1` [Ref. Ex. 4, 1,6-dihydro-6,6-dimethyl-4-octylamino-2-phenylamino-1,3,5-triazine acetate, reference compound] the “SI value (Stimulation index, lymph node weight ratio to solvent group)” value [7] was 4.4.
With `CCCCCCCCNC1=NC(C)(C)N=C(NCc2ccc(C)cc2)N1` [Ref. Ex. 5, 4-octylamino-1,6-dihydro-6,6-dimethyl-2-(4-methylbenzylamino-1,3,5-triazine gluconate, reference compound] the “SI value (Stimulation index, lymph node weight ratio to solvent group)” value [7] was 4.4.

From patent US20110207926A1, “NOVEL DIHYDROTRIAZINE DERIVATIVE” (HAMARI CHEMICALS, LTD., priority 2008, published 2011)
